According to patent US20240270744A1 (Hoffmann-La Roche Inc., priority 2021, published 2024):
Read-outs that look alike come from different tables or passages of the source.

Assays:
[1] = biological target: human GABAA α1β3γ2 receptor (Homo sapiens (Human), UniProt P14867+P18507); experiment: Radioligand binding assay, competition for [3H]Flumazenil, γ2-containing GABAA subtypes
Description: The affinity of compounds at GABAA γ2 subunit-containing receptors was measured by competition for [^3H]Flumazenil (81.1 Ci/mmol; Roche) binding to HEK293F cells expressing human (transiently transfected) receptors of composition α1β3γ2.
Harvested pellets from HEK293F cells expressing the different GABAA γ2 receptor subtypes were resuspended in Mannitol Buffer pH 7.2-7.4 and processed as described above for the cells expressing the GABAA γ1 subunit-containing receptors.
Assays were incubated to equilibrium for 1 hour at 4° C. and harvested onto GF/C uni-filters (Packard) by filtration using a Packard harvester and washing with ice-cold wash buffer (50 mM Tris; pH 7.5). After anhydrousing, filter-retained radioactivity was detected by liquid scintillation counting. Ki values were calculated using Excel-Fit (Microsoft) and are the means of two determinations.

[2] = biological target: human GABAA α2β2γ1 receptor (Homo sapiens (Human), UniProt P47869+Q8N1C3); experiment: Radioligand binding assay, competition for [3H]RO7239181, γ1-containing GABAA subtypes; settings: for LogSel: Log of the γ2/γ1 Ki ratio
Description: (§1) The affinity of compounds at GABAA γ1 subunit-containing receptors was measured by competition for [^3H]RO7239181 (67.3 Ci/mmol; Roche) binding to membranes from HEK293F cells (ThermoFisher R79007) expressing human (transiently transfected) receptors of composition α5β2γ1, α2β2γ1, α1β2γ1.
(§2) Harvested pellets from HEK293F cells expressing the different GABAA receptor subtypes were resuspended in Mannitol Buffer pH 7.2-7.4 (Mannitol 0.29 M, Triethylamine 10 mM, Acetic acid 10 mM, EDTA 1 mM plus protease inhibitors (20 tablets Complete, Roche Diagnostics Cat. No. 05 056 489 001 per liter)), washed two times and then resuspended at 1:10 to 1:15 dilution in the same buffer. Cell disruption was performed by stirring the suspension in a Parr vessel #4637 at 435 psi for 15 minutes, and then the suspensions were centrifuged at 1000×g for 15 minutes at 4° C. (Beckman Avanti J-HC: rotor JS-4.2). The supernatant (S1) was transferred in a 21 Schott flask and the pellet (P1) was resuspended with Mannitol Buffer up to 175 ml. The resuspended pellet was transferred into a 250 ml Corning centrifugal beaker and centrifuged at 1500×g for 10 minutes at 4° C. (Beckman Avanti J-HC: rotor JS-4.2). The supernatant (S1) was then transferred in the 21 Schott flask and the pellet was discarded. The supernatants (S1) were centrifuged in 500 ml Beckman polypropylene centrifugal beaker at 15′000×g for 30 minutes at 4° C. (Beckman Avanti J-20 XP; rotor JLA-10.500). The pellet (P2) was resuspended with Mannitol Buffer 1:1 and frozen at −80° C. The supernatant (S2) was centrifuged in 100 ml Beckman polypropylene centrifugal tubes at 48000×g for 50 minutes at 4° C. (Beckman Avanti J-20 XP; rotor JA-18). The supernatant (S3) was discarded and the pellet (P3) was resuspended with 1:1 Mannitol Buffer. The P2 and P3 protein concentration was determined with the BIORAD Standard assay method with bovine serum albumin as standard and measured on the NANO-Drop 1000. The membrane suspension was aliquots (500 μl per tube) and stored at −80° C. until required.
(§3) Membrane homogenates were resuspended and polytronised (Polytron PT1200E Kinematica AG) in Potassium Phosphate 10 mM, KCl 100 mM binding buffer at pH 7.4 to a final assay concentration determined with a previous experiment.
(§4) Assays were incubated to equilibrium for 1 hour at 4° C. and then, membranes were filtered onto unifilter (96-well white microplate with bonded GF/C filters preincubated 20-50 minutes in 0.3% Polyethylenimine) with a Filtermate 196 harvester (Packard BioScience) and washed 4 times with cold Potassium Phosphate 10 mM pH 7.4, KCl 100 mM binding buffer. After anhydrousing, filter-retained radioactivity was detected by liquid scintillation counting. Ki values were calculated using Excel-Fit (Microsoft) and are the means of two determinations.

[3] = biological target: human GABAA α5β2γ1 receptor (Homo sapiens (Human), UniProt P31644+Q8N1C3); experiment: as above; settings: Table 1; [3H]RO7239181 displacement, membranes from HEK293F cells, mean of two determinations
Description: as §1, with “α1β2γ1. For better protein expression of the α2 subunit-containing receptors, the 28 amino acid long signal peptide (Met1 to Ala28) of the human GABAA α2 subunit was substituted by the 31 amino acid long signal peptide (Met1 to Ser31) of human GABAA α5 subunit.” for “α1β2γ1.”
as §2, §3
as §4, with “Radioligand binding assays were carried out in a volume of 200 μL (96-well plates) which contained 100 μL of cell membranes, [3H]RO7239181 at a concentration of 1.5 nM (α5β2γ1) or 20-30 nM (α1β2γ1, α2β2γ1) and the test compound in the range of [0.3-10000]=10^−9 M. Nonspecific binding was defined by 10×10^−6 (α5β2γ1) and 30×10^−6 M RO7239181 and typically represented less than 5% (α5β2γ1) and less than 20% (β1β2γ1, α2β2γ1) of the total binding. Assays” for “Assays”
Representative test results, obtained by the above described assay measuring binding affinity to HEK293 cells expressing human (h) receptors, are shown in the Table 1.

h-GABA-A α2β2γ1 = h-GABA-A α2β2γ1 (Homo sapiens (Human), UniProt P47869+Q8N1C3); experiment: Two-electrode voltage clamp electrophysiology in Xenopus oocytes expressing GABAA receptors; type: cell-based; settings: α2β2γ1 GABAA receptor subtype expressing oocytes; reference PAMs
Description: Xenopus laevis oocytes at maturation stages V-VI were used for the expression of cloned mRNA encoding GABAA receptor subunits. Oocytes ready for RNA micro-injection were bought from Ecocyte, Castrop-Rauxel, Germany and stored in modified Barth's medium (composition in mM: NaCl 88, KCl 1, NaHCO3 2.4, HEPES 10, MgSO4 0.82, CaNO3 0.33, CaCl2 0.33, pH=7.5) at 20° C. until the experiment.
Oocytes were plated in 96-well plates for microinjection using the Roboinject automated instrument (MultiChannelSystems, Reutlingen, Germany). Approximately 50 nL of an aqueous solution containing the RNA transcripts for the subunits of the desired GABAA receptor subtype was injected into each oocyte. […] Oocytes were kept in modified Barth's medium (composition in mM: NaCl 88, KCl 1, NaHCO3 […], HEPES 10, MgSO4 0.82, CaNO3 0.33, CaCl2 0.33, pH=7.5) at 20° C. until the experiment.
Electrophysiological experiments were performed using the Roboocyte instrument (MultiChannelSystems, Reutlingen, Germany) on days 3 to 5 after the micro-injection of mRNA. During the experiment the oocytes were constantly superfused by a solution containing (in mM) NaCl 90, KCl 1, HEPES 5, MgCl2 1, CaCl2 1 (pH 7.4). Oocytes were impaled by two glass microelectrodes (resistance: […]) which were filled with a solution containing KCl 1M+K-acetate 1.5 M and voltage-clamped to −80 mV. The recordings were performed at room temperature using the Roboocyte two-electrode voltage clamp system (Multichannelsystem). After an initial equilibration period of 1.5 min GABA was added for 1.5 min at a concentration evoking approximately 20% of a maximal current response (EC20). After another rest interval of 2.5 min GABA was again added evoking a response of similar amplitude and shape. […] Current traces were recorded at a digitization rate of 10 Hz during and shortly before and after the GABA application.
Each compound and concentration was tested on at least 3 oocytes. Different oocytes were used for different compound concentrations.
For the analysis, the digitized current traces of the first and second GABA response were superimposed and, if necessary, rescaled to equal maximal amplitudes. The ratio between the two responses during the time interval of test compound application was calculated point by point. The extremum of the resulting “ratio trace” was taken as the efficacy (“Fold increase”) of the compound expressed as “% modulation of GABA EC20” (100*(Fold increase−1)).

[4] = Table 1, [3H]Flumazenil displacement, HEK293F cells, mean of two determinations, read-out: Ki h-GABAA α1β3γ2
[5] = Ki h-GABAA α2β2γ1, Table 1, [3H]RO7239181 displacement, membranes from HEK293F cells, mean of two determinations
[6] = Table 1, Ki α1β3γ2 (nM)/Ki α2β2γ1 (nM)

Cc1cn2c(n1)[C@H](C)N=C(c1c(F)cccc1F)c1c-2cnc(C(F)(F)F)c1Cl [Example 18, (7S)-11-chloro-9-(2,6-difluorophenyl)-4,7-dimethyl-12-(trifluoromethyl)-2,5,8,13-tetrazatricyclo[8.4.0.02,6]tetradeca-1(10),3,5,8,11,13-hexaene]
Ki [1, 4]: 4170 nM
Ki [2]: 131 nM
Ki [2, 5]: 54.5 nM
γ2/γ1 Selectivity Ratio [2, 6]: 77
LogSel ([2]; Table 1): 1.88
Ki [3]: 5.9 nM

C[C@@H]1N=C(c2c(F)cccc2F)c2c(cnc(C(F)(F)F)c2Cl)-n2nc(C(=O)N[C@H]3C[C@@H](O)C3)nc21 [Example 23, (7S)-11-chloro-9-(2,6-difluorophenyl)-N-cis-(3-hydroxycyclobutyl)-7-methyl-12-(trifluoromethyl)-2,3,5,8,13-pentazatricyclo[8.4.0.02,6]tetradeca-1(10),3,5,8,11,13-hexaene-4-carboxamide]
Ki [1, 4]: 14500 nM
γ2/γ1 Selectivity Ratio [2, 6]: 144
LogSel ([2]; Table 1): 2.16
Ki ([2]; Table 1, [3H]RO7239181 displacement, membranes from HEK293F cells, mean of two determinations, read-out: Ki h-GABAA α2β2γ1): 101 nM
Ki ([2]; Table 2, [3H]RO7239181 displacement, read-out: Ki h-GABAA α2β2γ1): 101 nM
Ki [3]: 9.7 nM

C[C@@H]1N=C(c2c(F)cccc2F)c2c(cnc(C(F)(F)F)c2Cl)-n2nc(C(=O)N[C@H]3C[C@H](O)C3)nc21 [Example 24, (7S)-11-chloro-9-(2,6-difluorophenyl)-N-trans-(3-hydroxycyclobutyl)-7-methyl-12-(trifluoromethyl)-2,3,5,8,13-pentazatricyclo[8.4.0.02,6]tetradeca-1(10),3,5,8,11,13-hexaene-4-carboxamide]
Ki [1, 4]: 8380 nM
Ki [2, 5]: 72.6 nM
Ki ([2]; Ki h-GABAA α2β2γ1, Table 2, [3H]RO7239181 displacement): 72.6 nM
γ2/γ1 Selectivity Ratio [2, 6]: 115
LogSel ([2]; Table 1): 2.06
Ki [3]: 2.8 nM

Cc1ncc2n1-c1ccc(Cl)cc1C(c1ccccc1F)=NC2 [Midazolam, reference compound]
potentiation of the GABA-induced current (h-GABA-A α2β2γ1): ~60%

CN1C(=O)CN=C(c2ccccc2F)c2ccncc21 [RE-A, reference compound]
Ki [1]: 179 nM
Ki ([2]; Ki h-GABAA α2β2γ1, Table 3, reference compounds comparison): 10200 nM
γ2/γ1 Selectivity Ratio ([2]; Table 3, Ki α1β3γ2/Ki α2β2γ1): 0.018

Cc1nnc2n1-c1ccc(Cl)cc1C(c1ccccc1Cl)=NC2 [Triazolam, reference compound]
potentiation of the GABA-induced current (h-GABA-A α2β2γ1): ~60%
